We go through nine molecules from ChEMBL document CHEMBL1201862, “PubChem BioAssay data set” (2004).

Active and inactive are the calls of the source.

Assay [1] concerns the target Fructose-bisphosphate aldolase (Mycobacterium tuberculosis, UniProt P9WQA3). As to the kind of experiment: Fluorescence-based biochemical high throughput dose response assay for inhibitors of the fructose-bisphosphate aldolase (FBA) of M. tuberculosis. Format: functional.
The nature of assay [2]: viability loss in THP-1 monocytes – THP-1 cells, cytotoxicity control for Vif-APOBEC3G degradation inhibitor project, dose response (AID 1117359). The assay is classed as functional. The following applies: THP-1.
In assay [3] the target is Potassium channel subfamily K member 3 (Homo sapiens, UniProt O14649). Briefly: inhibition of human KCNK3 channel flux – CHO cells, FluxOR thallium flux, SAR follow-up (AID 652212). Format: functional.
Potassium channel subfamily K member 3, sequence (O14649 whole entry): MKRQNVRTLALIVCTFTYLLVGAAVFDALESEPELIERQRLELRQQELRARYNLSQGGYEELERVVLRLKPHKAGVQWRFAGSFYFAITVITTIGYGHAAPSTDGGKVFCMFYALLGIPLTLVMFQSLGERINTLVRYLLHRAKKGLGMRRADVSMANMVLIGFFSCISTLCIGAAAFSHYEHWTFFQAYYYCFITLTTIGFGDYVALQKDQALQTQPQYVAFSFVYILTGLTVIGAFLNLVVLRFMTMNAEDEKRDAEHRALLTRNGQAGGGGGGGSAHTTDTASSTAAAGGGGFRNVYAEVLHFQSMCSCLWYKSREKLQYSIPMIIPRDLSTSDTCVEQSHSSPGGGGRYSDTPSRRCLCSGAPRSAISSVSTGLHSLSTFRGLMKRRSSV
In assay [4] the target is Potassium channel subfamily K member 9 (Homo sapiens, UniProt Q9NPC2). As to the kind of experiment: KCNK9 flux blockade, concentration-response – cell-based, FluxOR thallium flux, selectivity assay for TASK1 inhibitor project, SAR follow-up (AID 652211).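 Further: potency is for inhibitors of the channel.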 Format: functional.
Potassium channel subfamily K member 9, sequence (Q9NPC2 whole entry): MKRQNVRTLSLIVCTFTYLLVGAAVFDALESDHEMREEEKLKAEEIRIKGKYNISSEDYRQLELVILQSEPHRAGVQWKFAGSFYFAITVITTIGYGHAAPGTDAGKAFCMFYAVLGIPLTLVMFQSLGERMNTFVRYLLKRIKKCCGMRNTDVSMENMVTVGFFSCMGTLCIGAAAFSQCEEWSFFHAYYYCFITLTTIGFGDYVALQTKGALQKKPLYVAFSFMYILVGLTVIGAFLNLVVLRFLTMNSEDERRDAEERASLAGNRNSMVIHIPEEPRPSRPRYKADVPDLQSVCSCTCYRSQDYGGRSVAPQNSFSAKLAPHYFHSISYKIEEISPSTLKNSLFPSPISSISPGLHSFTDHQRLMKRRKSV
In assay [5] the target is Matrix metalloproteinase-14 (Homo sapiens, UniProt P50281). Briefly: Dose Response confirmation of uHTS hits for a small molecule inhibitors of MT1-MMP activation in a fluorescence assay set 2. Format: functional.
Assay [6] is described as follows: reduced cellular PGC1a acetyl-lysine signal – cell-based, cherry-picked samples, dose response (AID 720514).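 Further: potency may reflect raised or lowered acetylation signal.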 Format: functional.
A short description of assay [7]: T. cruzi growth inhibition in host cells, dose response, cell-based, plate reader, dry powder, set 2 (AID 652275). The assay is classed as functional.
The nature of assay [8]: viability loss in HepG2 hepatoma cells – cell-based, ATP luminescence, cherry-pick, activator set 2, cytotoxicity control, dose response (AID 1053143). The assay is classed as functional.
Assay [9] has as its target T1, Oxysterols receptor LXR-beta (Homo sapiens, UniProt P55055).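 Further: Cell-based luminescence dose-response assay of agonist activity at LXR, run as a confirmatory counterscreen to a daf-12 agonist screen; HEK293 cells with Gal4-LXR fusion and GAL4-driven luciferase reporter; agonist potency from rising luciferase signal of a Gal4-LXR reporter.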
T1 sequence (P55055 whole entry): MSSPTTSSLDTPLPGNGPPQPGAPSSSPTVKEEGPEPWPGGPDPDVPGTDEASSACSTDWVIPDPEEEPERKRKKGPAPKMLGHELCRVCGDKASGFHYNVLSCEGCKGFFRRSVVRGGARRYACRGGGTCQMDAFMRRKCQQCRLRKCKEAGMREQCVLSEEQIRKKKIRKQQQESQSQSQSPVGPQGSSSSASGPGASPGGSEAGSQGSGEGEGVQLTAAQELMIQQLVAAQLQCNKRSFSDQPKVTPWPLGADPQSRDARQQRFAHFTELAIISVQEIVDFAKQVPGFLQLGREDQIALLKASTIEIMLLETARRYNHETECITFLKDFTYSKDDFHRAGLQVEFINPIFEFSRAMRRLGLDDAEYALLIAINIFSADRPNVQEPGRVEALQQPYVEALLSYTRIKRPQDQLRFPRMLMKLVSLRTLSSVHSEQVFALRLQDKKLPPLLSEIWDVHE
The assay is classed as functional, cell-based.

Assay [10] is described as follows: A2780 cell killing – plate reader, dry powder samples, cytotoxicity control, dose response (AID 743046). The assay is classed as functional, cell-based.
Assay [11] is described as follows: toxicity toward immortalized ovarian surface epithelium – cell-based, plate reader, dry powder samples, cytotoxicity control for PAX8 inhibitor project, dose response (AID 743045). Format: functional.
Assay [12] is described as follows: OVCAR8 cell viability loss – plate reader, dry powder samples, PAX8 project, dose response (AID 743197). The assay is classed as functional, cell-based. The following applies: OVCAR-8.
The target in a further assay is Paired box protein Pax-8 (Homo sapiens, UniProt Q06710). Briefly: PAX8 transcriptional activity inhibition in RMG-I – RMG-I cells, luciferase, cherry-pick, dose response (AID 687027).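 Further: luciferase reporter driven by Pax8 target thyroperoxidase promoter measured by SteadyGlo luminescence.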 The assay is classed as functional, cell-based.
Paired box protein Pax-8, sequence (Q06710 whole entry): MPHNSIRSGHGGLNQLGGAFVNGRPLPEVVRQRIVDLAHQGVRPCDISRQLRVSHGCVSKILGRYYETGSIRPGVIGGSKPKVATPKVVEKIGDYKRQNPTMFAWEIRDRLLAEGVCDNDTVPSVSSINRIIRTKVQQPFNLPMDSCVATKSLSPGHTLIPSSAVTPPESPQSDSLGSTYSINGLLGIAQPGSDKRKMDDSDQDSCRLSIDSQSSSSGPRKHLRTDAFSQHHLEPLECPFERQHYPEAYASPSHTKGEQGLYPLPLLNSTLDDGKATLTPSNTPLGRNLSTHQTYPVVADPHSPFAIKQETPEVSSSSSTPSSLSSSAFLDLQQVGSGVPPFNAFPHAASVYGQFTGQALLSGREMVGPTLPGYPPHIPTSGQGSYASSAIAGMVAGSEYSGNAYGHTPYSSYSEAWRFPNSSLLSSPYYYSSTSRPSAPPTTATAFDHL
Assay [13] can be described thus: general cell-killing toxicity readout – plate reader, dry powder samples, cytotoxicity control for PAX8 inhibitor project, dose response (AID 743021). Format: functional, cell-based.
A short description of assay [14]: IGROV1 cell killing – plate reader, dry powder samples, PAX8 inhibitor project, dose response (AID 743043). The assay is classed as functional, cell-based. The following applies: IGROV-1.
The nature of assay [15]: OVCAR-3 cell viability loss – plate reader, dry powder samples, PAX8 inhibitor project, dose response (AID 743044). The assay is classed as functional, cell-based.

Broadly, the IC50 is the concentration that gives 50% inhibition. A word on the CC50: it is the concentration at which the toxic effect on the cells reaches its halfway point. Broadly, the AC50 is the concentration at which the activity in the assay is half-maximal. As usually defined, the EC50 is the concentration needed to bring the measured effect to its halfway point.

Fructose-bisphosphate aldolase, sequence (P9WQA3 whole entry): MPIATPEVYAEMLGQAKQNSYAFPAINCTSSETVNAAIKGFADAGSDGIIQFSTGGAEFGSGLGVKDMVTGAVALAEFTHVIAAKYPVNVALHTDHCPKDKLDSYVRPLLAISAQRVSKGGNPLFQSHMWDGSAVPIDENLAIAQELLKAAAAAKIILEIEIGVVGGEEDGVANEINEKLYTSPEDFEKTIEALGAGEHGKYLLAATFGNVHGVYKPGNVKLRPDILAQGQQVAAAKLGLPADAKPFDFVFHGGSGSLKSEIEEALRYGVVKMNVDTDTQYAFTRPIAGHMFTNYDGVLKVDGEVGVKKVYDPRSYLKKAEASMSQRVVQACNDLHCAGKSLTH

As to `CCOc1c2ccc(C(=O)NC3CCCc4ccccc43)cc2nn1CC` (stereo not drawn), the IC50 in assay [1] was 1.64 µM (active).

In the case of `Cc1cc(-c2ccc(Cl)cc2)n2nc(N)nc2n1`, in [1], the IC50 was 1.4 µM (active).

`Cc1ccccc1S(=O)(=O)Cc1ccc(C(=O)NCCCN2CCC(C)CC2)o1`: the CC50 in assay [2] was > 40 µM (active).

`Cc1cccc(C(=O)Nc2cccc(NC(=O)c3cccc(C(F)(F)F)c3)c2)c1`: the IC50 was 9 nM (active) in assay [3] and 3.06 µM (active) in [4].

For `COc1ccc(OCC(=O)NNc2c3ccccc3nc3ccccc23)cc1`, the IC50 in [5] was > 80 µM (inactive).

As for `CC(C)CC#Cc1ccc2c(c1)O[C@H](CN(C)Cc1ccccc1)[C@@H](C)CN([C@H](C)CO)S2(=O)=O`, in [6], the AC50 was 16.4 µM (active).

For the molecule `CC(=O)N1CCCCN2[C@@H](CO)[C@H](c3ccc(-c4cccc(C(=O)N(C)C)c4)cc3)[C@@H]2C1`, in assay [7], the AC50 is 4.94 µM (active).

As to `Cc1ccc(-c2cnc3ccccc3n2)cc1C`, the AC50 in assay [8] was 26 µM (active). The EC50 (in [9]; in “cells”) was > 67.6 µM (inactive) each time.

As to `CS(=O)(=O)Nc1ccc2c(c1)[C@@H]1C[C@@H](CC(=O)NCc3ccc(-c4ccccc4)cc3)O[C@@H](CO)[C@@H]1O2`, the concentration at half-maximal activity (AC50) was 17.7 µM (active) in assay [10]; 11.7 µM (active) in assay [11]; 16.5 µM (active) in [12]; 3.2 µM (active) at Paired box protein Pax-8; 65.6 µM (active) in assay [13]; 17.6 µM (active) in [14]. The AC50 in assay [15] was 9.08 µM (active).
